From patent publication US8263605B2, “Modulators of muscarinic receptors” (Vertex Pharmaceutical Incorporated, priority 2006, dated 2012)

Tests used:
M1 muscarinic receptor = target: T1, M1 muscarinic receptor (Homo sapiens, UniProt P11229); assay: Functional mobilization of intracellular calcium (FLIPR), M1-CHO cells; type: cell-based; settings: for Emax: 100% efficacy is the maximum response obtained with the Carbachol control; for M1 Activity: CHO cells expressing M1, calcium mobilization
T1 construct: expressed in transfected cells; host or cells: CHO (M1-CHO)
T1 sequence (P11229 1-460): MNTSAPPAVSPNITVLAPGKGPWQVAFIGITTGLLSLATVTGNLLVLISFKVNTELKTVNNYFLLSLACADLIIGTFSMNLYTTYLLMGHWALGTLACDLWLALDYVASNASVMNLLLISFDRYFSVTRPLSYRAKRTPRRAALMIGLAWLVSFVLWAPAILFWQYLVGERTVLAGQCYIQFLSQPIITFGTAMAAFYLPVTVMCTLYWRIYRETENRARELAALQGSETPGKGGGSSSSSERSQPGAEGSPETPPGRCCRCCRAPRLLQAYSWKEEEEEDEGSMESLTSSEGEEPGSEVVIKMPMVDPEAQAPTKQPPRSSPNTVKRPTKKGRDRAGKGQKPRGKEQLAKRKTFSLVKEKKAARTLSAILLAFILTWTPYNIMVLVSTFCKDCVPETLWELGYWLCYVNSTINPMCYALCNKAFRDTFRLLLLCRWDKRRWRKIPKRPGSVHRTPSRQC
Outline: (§1)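 Recombinant CHO cells loaded with Fluo-3 AM or Calcium 3 dye; fluorescence recorded 60 s on FLIPR in pH 7.4 buffer with 1 mM probenecid, 0.5% DMSO. Agonist mode: compound alone; antagonist mode: 15 min preincubation (or co-application) then carbachol at EC80. Efficacy relative to maximal carbachol response.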

M4 muscarinic receptor = target: T2, M4 muscarinic receptor (Homo sapiens, UniProt P08173); assay: Functional mobilization of intracellular calcium (FLIPR), M4-CHO cells; type: cell-based; settings: for Emax: 100% efficacy is the maximum response obtained with the Carbachol control; for M4 Activity: CHO cells expressing M4, calcium mobilization
T2 construct: expressed in transfected cells; host or cells: CHO (M4-CHO)
T2 sequence (P08173 1-479): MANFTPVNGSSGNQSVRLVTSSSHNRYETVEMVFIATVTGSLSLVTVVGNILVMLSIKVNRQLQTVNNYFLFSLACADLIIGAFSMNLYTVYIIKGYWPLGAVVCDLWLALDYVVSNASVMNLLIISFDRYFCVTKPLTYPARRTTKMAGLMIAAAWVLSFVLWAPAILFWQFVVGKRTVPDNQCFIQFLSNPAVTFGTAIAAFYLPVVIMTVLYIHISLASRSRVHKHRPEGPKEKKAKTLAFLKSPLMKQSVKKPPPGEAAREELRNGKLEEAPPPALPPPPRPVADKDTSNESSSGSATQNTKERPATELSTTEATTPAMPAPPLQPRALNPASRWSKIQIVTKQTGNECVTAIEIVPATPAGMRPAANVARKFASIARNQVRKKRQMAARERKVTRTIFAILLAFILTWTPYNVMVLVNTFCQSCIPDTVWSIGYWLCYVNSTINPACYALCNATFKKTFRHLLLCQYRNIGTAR
Outline: as §1

SMILES	Emax (M1 muscarinic receptor)	M1 Activity (M1 muscarinic receptor)	Emax (M4 muscarinic receptor)	M4 Activity (M4 muscarinic receptor)
CN(C)C(=O)N1CC2(CCN(C[C@H]3CCN(c4cnccn4)C3)CC2)c2ccccc21 [compound 108]	25 to 100%	+++ (activity was measured to be less than 2.0 μM)	> 100%	+++ (activity was measured to be less than 2.0 μM)
CN(C)C(=O)N1CC2(CCN(C[C@@H]3CCN(c4cnccn4)C3)CC2)c2ccccc21 [compound 109]	25 to 100%	+++ (activity was measured to be less than 2.0 μM)	> 100%	+++ (activity was measured to be less than 2.0 μM)
CN(C)C(=O)N1CC2(CCN(C[C@@H]3CCN(C(=O)OC4CCOC4)C3)CC2)c2ccccc21 (some centres unmarked) [compound 110]	< 25%	++ (activity was measured to be from 2.0 μM to 10.0 μM)	< 25%	++ (activity was measured to be from 2.0 μM to 10.0 μM)
CN(C)C(=O)N1CC2(CCN(C[C@H]3CCN(C(=O)OC4CCOC4)C3)CC2)c2ccccc21 (some centres unmarked) [compound 111]	< 25%	++ (activity was measured to be from 2.0 μM to 10.0 μM)	< 25%	++ (activity was measured to be from 2.0 μM to 10.0 μM)
CN(C)C(=O)N1CC2(CCN(C3CCC(c4ncns4)CC3)CC2)c2ccccc21 (centres unmarked) [compound 112]	< 25%	++ (activity was measured to be from 2.0 μM to 10.0 μM)	< 25%	+ (activity was measured to be greater than 10.0 μM)
CN(C)C(=O)N1CC2(CCN(C3CCN(c4cncc(-c5ccccc5O)n4)CC3)CC2)c2ccccc21 [compound 113]	25 to 100%	+++ (activity was measured to be less than 2.0 μM)	< 25%	+ (activity was measured to be greater than 10.0 μM)
C=Cc1cncc(N2CCC(N3CCC4(CC3)CN(C(=O)N(C)C)c3ccccc34)CC2)n1 [compound 114]	< 25%	+ (activity was measured to be greater than 10.0 μM)	25 to 100%	+++ (activity was measured to be less than 2.0 μM)
Cc1nsc(N2CCC(C)(N3CCC4(CC3)CN(C(=O)N(C)C)c3ccccc34)CC2)n1 [compound 115]	< 25%	+ (activity was measured to be greater than 10.0 μM)	< 25%	+++ (activity was measured to be less than 2.0 μM)
Cc1cnc(N2CCC(N3CCC4(CC3)CN(C(=O)N(C)C)c3ccccc34)CC2)s1 [compound 116]	< 25%	+ (activity was measured to be greater than 10.0 μM)	< 25%	+ (activity was measured to be greater than 10.0 μM)
CN(C)C(=O)N1CC2(CCN(C3CCN(c4nc5ccccc5s4)CC3)CC2)c2ccccc21 [compound 117]	< 25%	+ (activity was measured to be greater than 10.0 μM)	< 25%	++ (activity was measured to be from 2.0 μM to 10.0 μM)
CN(C)C(=O)N1CC2(CCN(C3CCN(c4nc5ccccc5o4)CC3)CC2)c2ccccc21 [compound 118]	25 to 100%	++ (activity was measured to be from 2.0 μM to 10.0 μM)	< 25%	++ (activity was measured to be from 2.0 μM to 10.0 μM)
